Measurements: patent US9204653B2, “5-fluoro pyrimidine derivatives” (DOW AGROSCIENCES LLC, priority 2008, dated 2015)
Like-named read-outs stand apart in the source and are kept apart here.

What was measured:
[1] = system: Mycosphaerella graminicola; Anamorph: Septoria tritici; Bayer Code SEPTTR; assay: Leaf blotch of wheat, foliar fungicide treatment, one day protectant (1DP) or three day curative (3DC); type: in vivo, Septoria tritici on wheat plants (variety Yuma); conditions: Zymoseptoria tritici, rating of percent disease control
[2] = system: Cercospora beticola; Bayer Code CERCBE; assay: Leaf spot of sugar beets; type: in vivo, Cercospora beticola on sugar beets (variety HH-88); conditions: 24 h, % disease control rating, one day protectant; for pest or weed control at 25 ppm: read-out: CERCBE 1 DP 25 ppm; for pest or weed control at 75 ppm: read-out: CERCBE 1 DP 75 ppm
[3] = system: Venturia inaequalis; Bayer Code VENTIN; assay: Apple scab; type: in vivo; conditions: 24 h, % disease control rating, one day protectant; for pest or weed control at 25 ppm: read-out: VENTIN 1 DP 25 ppm; for pest or weed control at 75 ppm: read-out: VENTIN 1 DP 75 ppm
[4] = 24 h, one day protectant, read-out: SETTTR 1DP 25 ppm
[5] = 24 h, one day protectant, read-out: SEPTTR 1DP 100 ppm
[6] = 72 h, three day curative, read-out: SEPTTR 3DC 25 ppm
[7] = 72 h, three day curative, read-out: SEPTTR 3DC 100 ppm

SMILES | pest or weed control at 25 ppm [1, 4] [%] | pest or weed control at 100 ppm [1, 5] [%] | pest or weed control at 25 ppm [1, 6] [%] | pest or weed control at 100 ppm [1, 7] [%] | pest or weed control at 25 ppm [2] [%] | pest or weed control at 75 ppm [2] [%] | pest or weed control at 25 ppm [3] [%] | pest or weed control at 75 ppm [3] [%]
CN(C)/C=N/c1nc(OCc2cccs2)ncc1F [Compound 570] | 76 to 100 | 76 to 100 | 76 to 100 | 76 to 100 | 0 to 25 | 26 to 50 | 26 to 50 | 76 to 100
Nc1nc(OCc2cnc(Cl)c(Cl)c2)ncc1F [Compound 582] | 76 to 100 | 76 to 100 | 76 to 100 | 76 to 100 | 51 to 75 | 51 to 75 | 76 to 100 | 76 to 100
CCn1nccc1Oc1ncc(F)c(N)n1 [Compound 584] | 0 to 25 | 76 to 100 | 0 to 25 | 76 to 100 | 26 to 50 | 26 to 50 | 26 to 50 | 26 to 50
Nc1nc(Oc2cccc(Cl)c2)ncc1F [Compound 593] | 0 to 25 | 51 to 75 |  |  | 26 to 50 | 51 to 75 | 76 to 100 | 76 to 100
Fc1cnc(OCc2ccccc2)nc1/N=C/N1CCOCC1 [Compound 626] | 76 to 100 | 76 to 100 | 76 to 100 | 76 to 100 | 0 to 25 | 0 to 25 | 26 to 50 | 76 to 100
Nc1nc(OCc2csc3ccccc23)ncc1F [Compound 630] | 76 to 100 | 76 to 100 | 76 to 100 | 76 to 100 | 0 to 25 | 0 to 25 | 51 to 75 | 76 to 100
C=CC(C)Oc1ncc(F)c(N)n1 (stereo not drawn) [Compound 631] | 0 to 25 | 0 to 25 | 0 to 25 | 0 to 25 | 0 to 25 | 0 to 25 | 0 to 25 | 26 to 50
Nc1nc(OCCCc2ccccn2)ncc1F [Compound 635] | 26 to 50 | 76 to 100 | 0 to 25 | 76 to 100 | 26 to 50 | 26 to 50 | 26 to 50 | 76 to 100
COc1ccc(Oc2ncc(F)c(NC(C)=O)n2)cc1 [Compound 649] | 0 to 25 | 26 to 50 | 0 to 25 | 76 to 100 | 0 to 25 | 0 to 25 | 26 to 50 | 26 to 50
CC(C)(c1ccccc1)c1cccc(COc2ncc(F)c(N)n2)c1 [Compound 687] | 26 to 50 | 76 to 100 | 0 to 25 | 0 to 25 | 0 to 25 | 0 to 25 | 26 to 50 | 51 to 75
Fc1ccc(COc2ncc(F)c(NCn3c(-c4cscn4)nc4ccccc43)n2)cc1 [Compound 694] | 0 to 25 | 26 to 50 | 0 to 25 | 26 to 50 | 26 to 50 | 26 to 50 | 26 to 50 | 51 to 75
Nc1nc(OCc2ccc(Cl)c([N+](=O)[O-])c2)ncc1F [Compound 707] | 76 to 100 | 76 to 100 | 76 to 100 | 76 to 100 | 51 to 75 | 26 to 50 | 51 to 75 | 51 to 75
CC(CCOc1ncc(F)c(N)n1)c1ccccc1 (stereo not drawn) [Compound 710] | 51 to 75 | 76 to 100 | 51 to 75 | 76 to 100 | 0 to 25 | 0 to 25 | 26 to 50 | 26 to 50
